Here are results for two molecules from patent US5985826A, “Methods of using hepatic-directed compounds in pretargeting strategies” (NeoRx Corporation, priority 1997, dated 1999).

Each structure is given as a SMILES string.

The test system of data set [1] is I-125 NR-LU-10-streptavidin conjugate. In words: In vivo pretargeting-format clearance of I-125 NR-LU-10-streptavidin conjugate from circulation. More on the design: species or system mice (BALB/c). On the procedure: In a third set of experiments conducted in vivo in the pretargeting format (e.g., administration of radiolabeled MAb-streptavidin conjugate followed by administration of clearing agent), the (galactosyl)8 -LC-biotin conjugate was also compared to galactose-HSA-biotin prepared as described above. This comparison was conducted in a Balb/c mouse model and was for the ability to clear an I-125 labeled monoclonal antibody-streptavidin conjugate (1-125 LU-10-streptavidin) from circulation as a function of time. […] Subsequent experiments have further shown that hepatic-directed compounds containing 16 galactose residues provide for even better clearance than those containing 8 galactose residues.
Having shown that precomplexed material could clear rapidly and efficiently from the blood, experiments were conducted to measure the effectiveness of various doses of-the 16 galactose-biotin construct to form rapidly clearing complexes in vivo. Mice received 400 micrograms of I-125 NR-LU-10streptavidin conjugate intravenously, and approximately 22 hours later received the 16 galactose-biotin construct at doses of 100 50, or 10:1 (456, 228 and 45 micrograms, respectively) molar excess to circulating monoclonal antibody-streptavidin conjugate. […] The larger doses may be sufficiently high to achieve competition between complexed and non-complexed 16-galactose-biotin for liver receptors, thereby precluding all but a small initial fraction of the complexed MAb-streptavidin conjugate from clearing via the liver. Following the plateau period, clearing of the conjugate remained slow and was eventually less complete than that achieve with the lower dose (approximately 10% of the conjugate remained in circulation at the higher doses, in comparison to 2% for the lower dose). […] If the 16 galactose-biotin construct is unstable, sufficient biotin may be released at higher doses to that a significant portion of circulating conjugate became blocked thereby and, consequently, was not cleared via hepatic-mediated uptake.

The subject of data set [2] is MAb-streptavidin. Kind of data set: Relative stoichiometry of In-111 DOTA-biotin to I-125 MAb-streptavidin at the tumor target site. In kind it is in vivo. Conditions: I-125 MAb-streptavidin and In-111 DOTA-biotin. An excerpt:
Experiments were. also carried out using I-125 labeled MAb-streptavidin conjugate and In-111 labeled DOTA-biotin to assess the relative stoichiometry of those materials at the tumor target site using 16 galactose-biotin as a clearing agent. […] When a similar protocol was employed with the 16 galactose-biotin construct, the ratio of DOTA-biotin to MAb-streptavidin was only 2.65. […] Experiments to assess the nature of this blockade are underway.

Data set [3] relates to MAb-streptavidin conjugate. Kind of data set: Serum/blood clearance of MAb-streptavidin conjugate with galactose cluster-biotin conjugates (precomplexed ex vivo, or given after the conjugate). Conditions: precomplexed at 20-fold molar excess; 120 or 12 micrograms i.v.; vs antibody conjugate control; BALB/c female. Type of data set: in vivo, mouse. On the procedure:
Some or all of these compounds were assayed for their clearance directing activity in two sets of experiments. The first set of experiments involved ex vivo preparation of a precomplexed monoclonal antibody-streptavidin-biotin-galactose cluster conjugate labeled with I-125, intravenous administration of the conjugate in a mouse model, and measuring serum levels of the conjugate over time. The second set of experiments involved intravenous administration of MAb-streptavidin conjugate followed by administration of biotin-galactose cluster conjugate.
NR-LU-10 antibody (MW 150 kD) was conjugated to streptavidin (MW 66 kD) (as described in Example II above), and radiolabeled with ^125 I/PIP-NHS as described below. The antibody component of the conjugate was radioiodinated using p-aryltin phenylate NHS ester (PIP-NHS) and ^125 I sodium iodide. […]
Experiments were designed and executed to evaluate a 16 galactose cluster-biotin construct without the stabilizing tertiary amine structure of the nitrogen of the amide closest to the biotin, the preparation of such a stabilized construct being described above in Example V. BALB/c female mice (20-25 g) were injected i.v. with 120 micrograms of NR-LU-10-streptavidin conjugate radiolabeled with I-125, and blood was serially collected from n=3 mice. The clearance of the conjugate from the blood was measured of these control mice. […]

Data set [4] can be described thus: Non-target organ uptake of Y-90-DOTA-biotin radioactivity in tumored nude mice. Conditions: vs historical controls. Type of data set: in vivo. On the procedure: (§1) Having shown that effective clearing could be achieved with the appropriate does of 16 galactose-biotin construct, studies were undertaken in tumored nude mice to evaluate the potential blockade of tumor-associated conjugate by the small 16 galactose-biotin. Mice bearing either SW-1222 colon tumor xenografts or SHT-1 small cell lung cancer (SCLC) tumor xenografts were pretargeted with NR-LU-10-streptavidin conjugate and, 22 hours later, received 46 micrograms of 16 galactose-biotin. After 2 hours, Y-90-DOTA-biotin prepared as described above was administered, and its uptake and retention in tumor and non-target tissues was evaluated by sacrifice and tissue counting for radioactivity 2 hours post-administration.
(§2) The historical controls were conducted with a 3 hour time period between clearing agent and radioactivity administration.

The test system of data set [5] is SW-1222 colon tumor xenografts. Kind of data set: Tumor targeting of Y-90-DOTA-biotin after NR-LU-10-streptavidin and 16 galactose-biotin, SW-1222 colon xenograft. In kind it is in vivo, nude mice. On the procedure: as §1, §2
In data set [6] the test system is SHT-1 small cell lung cancer (SCLC) tumor xenografts. In words: Tumor targeting of Y-90-DOTA-biotin after NR-LU-10-streptavidin and 16 galactose-biotin, SHT-1 SCLC xenograft. Type of data set: in vivo, nude mice. On the procedure: as §1, §2
[7] abbreviates: 46 micrograms, Y-90-DOTA-biotin, vs historical controls with (galactose)35-HSA-(biotin)2.
The mark [8] stands for this setting: vs (galactose)35-HSA-(biotin)2 historical controls.

Consider `CN(CCCCSC1O[C@H](CO)[C@H](O)[C@H](O)[C@H]1O)C(=O)CCCCCN(CCCCCC(=O)N(C)CCCCSC1O[C@H](CO)[C@H](O)[C@H](O)[C@H]1O)C(=O)CCCCCN(CCCCCC(=O)N(CCCCCC(=O)N(C)CCCCSC1O[C@H](CO)[C@H](O)[C@H](O)[C@H]1O)CCCCCC(=O)N(C)CCCCSC1O[C@H](CO)[C@H](O)[C@H](O)[C@H]1O)C(=O)CCCCCN(CCCCCC(=O)N(CCCCCC(=O)N(CCCCCC(=O)N(C)CCCCSC1O[C@H](CO)[C@H](O)[C@H](O)[C@H]1O)CCCCCC(=O)N(C)CCCCSC1O[C@H](CO)[C@H](O)[C@H](O)[C@H]1O)CCCCCC(=O)N(CCCCCC(=O)N(C)CCCCSC1O[C@H](CO)[C@H](O)[C@H](O)[C@H]1O)CCCCCC(=O)N(C)CCCCSC1O[C@H](CO)[C@H](O)[C@H](O)[C@H]1O)C(=O)CCCCCNC(=O)CCCC[C@@H]1SC[C@@H]2NC(=O)N[C@@H]21` (stereo partly drawn) [(galactosyl)8 -LC-biotin], for which the “Ability to clear I-125 LU-10-streptavidin from circulation” value in data set [1] (Balb/c mouse, vs galactosylated-HSA-biotin) is reported as “comparable to galactosylated-HSA-biotin”.
On to `CN(CCCCSC1O[C@H](CO)[C@H](O)[C@H](O)[C@H]1O)C(=O)CCCCCN(CCCCCC(=O)N(C)CCCCSC1O[C@H](CO)[C@H](O)[C@H](O)[C@H]1O)C(=O)CCCCCN(CCCCCC(=O)N(CCCCCC(=O)N(C)CCCCSC1O[C@H](CO)[C@H](O)[C@H](O)[C@H]1O)CCCCCC(=O)N(C)CCCCSC1O[C@H](CO)[C@H](O)[C@H](O)[C@H]1O)C(=O)CCCCCN(CCCCCC(=O)N(CCCCCC(=O)N(CCCCCC(=O)N(C)CCCCSC1O[C@H](CO)[C@H](O)[C@H](O)[C@H]1O)CCCCCC(=O)N(C)CCCCSC1O[C@H](CO)[C@H](O)[C@H](O)[C@H]1O)CCCCCC(=O)N(CCCCCC(=O)N(C)CCCCSC1O[C@H](CO)[C@H](O)[C@H](O)[C@H]1O)CCCCCC(=O)N(C)CCCCSC1O[C@H](CO)[C@H](O)[C@H](O)[C@H]1O)C(=O)CCCCCN(CCCCCC(=O)N(CCCCCC(=O)N(CCCCCC(=O)N(CCCCCC(=O)N(C)CCCCSC1O[C@H](CO)[C@H](O)[C@H](O)[C@H]1O)CCCCCC(=O)N(C)CCCCSC1O[C@H](CO)[C@H](O)[C@H](O)[C@H]1O)CCCCCC(=O)N(CCCCCC(=O)N(C)CCCCSC1O[C@H](CO)[C@H](O)[C@H](O)[C@H]1O)CCCCCC(=O)N(C)CCCCSC1O[C@H](CO)[C@H](O)[C@H](O)[C@H]1O)CCCCCC(=O)N(CCCCCC(=O)N(CCCCCC(=O)N(C)CCCCSC1O[C@H](CO)[C@H](O)[C@H](O)[C@H]1O)CCCCCC(=O)N(C)CCCCSC1O[C@H](CO)[C@H](O)[C@H](O)[C@H]1O)CCCCCC(=O)N(CCCCCC(=O)N(C)CCCCSC1O[C@H](CO)[C@H](O)[C@H](O)[C@H]1O)CCCCCC(=O)N(C)CCCCSC1O[C@H](CO)[C@H](O)[C@H](O)[C@H]1O)C(=O)CCCCCNC(=O)CCCC[C@@H]1SC[C@@H]2NC(=O)N[C@@H]21` (stereo partly drawn) [16 galactose-biotin], for which the “Ratio of DOTA-biotin to MAb-streptavidin at the tumor” value in data set [2] was 2.65. Further, in data set [3], the “Blood clearance of precomplexed conjugate” value is “extremely rapid clearance from the blood”. In data set [1] (12, 23 and 228 microgram, vs 46 microgram), the “Efficiency at removing circulating conjugate, lower and higher doses” value was “less efficient at removing circulating conjugate”. The “Rebound effect, lower doses” value in data set [1] (12 and 23 microgram) is “significant rebound effect”. In data set [1] (46 microgram, vs previously optimized dose), the “Clearing effectiveness at 46 micrograms vs (galactose)35-HSA-(biotin)2” value is listed as “more effective than the previously optimized dose of (galactose)35 -HSA-(biotin)2”. The “Effectiveness at clearing conjugate, each dose” value in data set [1] (100, 50 or 10:1 molar excess (456, 228 and 45 micrograms), about 22 h after 400 micrograms conjugate) is on record as “effective at clearing conjugate”. The Optimal clearing dose in data set [1] (decreasing dose comparison) was found to be 46 microgram. For the same molecule, in data set [1] (higher doses (456 and 228 micrograms; 100:1, 50:1)), the “Conjugate remaining in circulation, higher doses” value is “approximately 10%”. For the same molecule, the “Duration of plateau in conjugate clearance” value in data set [1] (larger doses (456, 228 micrograms), after administration of 16 galactose-biotin) is on record as “about 1 hour”. In data set [1] (lower dose (45 micrograms; 10:1)), the “Conjugate remaining in circulation, lower dose” value was 2%. Moreover, the “Clearing of MAb-streptavidin from the circulation, summary” value in data set [1] (vascular and extravascular spaces) is given as “effective construct for clearing MAb-streptavidin from the circulation”. Also, in data set [4] (2 hours between clearing agent and radioactivity), the Liver uptake result is given as “slightly higher levels”. The “Non-target organ uptake except liver” value in data set [4] (Y-90 radioactivity) is recorded as “comparable in all tissues except liver”. Also, the “Tumor targeting, high antigen-expressing colon xenograft” value in data set [5] (setting [7]) is given as “slightly lower”. Besides, in data set [5] (setting [8]), the “Tumor uptake of radioactivity, SW-1222, overall assessment” value is “roughly equivalent”. The “Tumor targeting, low antigen-expressing SCLC xenograft” value in data set [6] (setting [7]) is “slightly higher”. Besides, the “Tumor uptake of radioactivity, SHT-1, overall assessment” value in data set [6] (setting [8]) is reported as “roughly equivalent”.
